Laboratory results as given in patent publication US11230543B2, “Biaryl monobactam compounds and methods of use thereof for the treatment of bacterial infections” (priority 2015, dated 2022).
Structures can show the parent of a compound that is named as a salt.

How the values were obtained:
Format in all cases: cell-based
Settings in all cases: lowest concentration inhibiting 95% of bacterial growth; in the presence of β lactamase inhibitor Relebactam 4 μg/mL; 35±2° C. for 22 hours; tested range 100 μM to 0.098 μM
[1] = test system: Acinetobacter baumannii expressing TEM-1, AmpC, and Oxa-24/40 (CL6188); experiment: Antibiotic activity: growth inhibitory concentration (OD600), Acinetobacter baumannii CL6188
Description: (§1) Antibiotic Activity: Determination of Growth Inhibitory Concentration
(§2) The concentrations of compounds required to inhibit the growth of various strains of bacteria were determined in an assay that assessed bacterial growth by measuring optical density at 600 nm (OD600). The bacterial strains tested included the clinical strains Escherichia coli expressing NDM-1 (CLB30016), Klebsiella pneumoniae expressing KPC-1 (CL6569), Acinetobacter baumannii expressing TEM-1, AmpC, and Oxa-24/40 (CL6188) and Pseudomonas aeruginosa expressing AmpC (CL5701). All compounds were tested in the presence of a β lactamase inhibitor (BLi, Relebactam) in 384-well microplates. The clinical strains were stored as frozen single use stocks, thawed and diluted into 1.1× cation-adjusted Mueller-Hinton II broth to achieve approximately 2×10^5 CFU/mL. Test compounds were dissolved in DMSO and diluted 1:50 in the assay, resulting in a final concentration range of 100 μM to 0.098 μM. […] At the end of the incubation, absorbance at 600 nm was determined using a spectrophotometer. Inhibition was quantitated by identifying the lowest concentration of test compound that was required to inhibit 95% of the growth of the bacteria. The results for Examples 1-126 are reported in Table I, expressed as the concentration of compound that inhibited 95% of bacterial growth (Minimum Inhibitory Threshold Concentration; MITC95).

[2] = test system: Pseudomonas aeruginosa expressing AmpC (CL5701); experiment: Antibiotic activity: growth inhibitory concentration (OD600), Pseudomonas aeruginosa CL5701
Outline: (§3)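 Clinical strains at ~2×10^5 CFU/mL in cation-adjusted Mueller-Hinton II broth, with relebactam at 4 μg/mL final; compounds 100 μM to 0.098 μM final. After 22 hours at 35±2° C, OD600 read; MITC95 is lowest concentration giving 95% growth inhibition.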

[3] = test system: Klebsiella pneumoniae expressing KPC-1 (CL6569); experiment: Antibiotic activity: growth inhibitory concentration (OD600), Klebsiella pneumoniae CL6569
Outline: as §3

[4] = test system: Escherichia coli expressing NDM-1 (CLB30016); experiment: Antibiotic activity: growth inhibitory concentration (OD600), Escherichia coli CLB30016
Description: as §1, §2

Compound: C[n+]1cc(-c2ccc(OC[C@H](O/N=C(\C(=O)N[C@@H]3C(=O)N(OS(=O)(=O)[O-])C3(C)C)c3csc(N)n3)C(=O)O)cc2)c(N)n1CCCN [Example 50, (S)-3-((Z)-2-(((S)-2-(4-(5-Amino-1-(3-aminopropyl)-2-methyl-1H-pyrazol-2-ium-4-yl)phenoxy)-1-carboxyethoxy)imino)-2-(2-aminothiazol-4-yl)acetamido)-2,2-dimethyl-4-oxoazetidin-1-yl sulfate]
- AB_CL6188 MITC95 [1]: 3.125 µM
- PA_CL5701 MITC95 [2]: 6.25 µM
- KP_CL6569 MITC95 [3]: 0.3906 µM
- EC_CLB30016 MITC95 [4]: 6.25 µM

Compound: (S)-3-((Z)-2-(((S)-2-(4-(2-(3-amino-2-fluoro-2λ^3-propyl)-1-(azetidin-3-ylmethyl)-1H-pyrazol-2-ium-4-yl)phenoxy)-1-carboxyethoxy)imino)-2-(2-aminothiazol-4-yl)acetamido)-2,2-dimethyl-4-oxoazetidin-1-yl sulfate [Example 121]
- AB_CL6188 MITC95 [1]: 1.563 µM
- PA_CL5701 MITC95 [2]: 1.563 µM
- KP_CL6569 MITC95 [3]: 0.1953 µM
- EC_CLB30016 MITC95 [4]: 6.25 µM

Compound: C[n+]1cc(-c2ccc(OC[C@H](O/N=C(\C(=O)N[C@@H]3C(=O)N(OS(=O)(=O)[O-])C3(C)C)c3csc(N)n3)C(=O)O)cc2F)ccc1NCCN [Example 68, (S)-3-((Z)-2-(((S)-2-(4-(6-((2-aminoethyl)amino)-1-methylpyridin-1-ium-3-yl)-3-fluorophenoxy)-1-carboxyethoxy)imino)-2-(2-aminothiazol-4-yl)acetamido)-2,2-dimethyl-4-oxoazetidin-1-yl sulfate]
- PA_CL5701 MITC95 [2]: 3.125 µM
- KP_CL6569 MITC95 [3]: 0.1953 µM

Compound: C[n+]1cc(-c2ccc(OC[C@H](O/N=C(\C(=O)N[C@@H]3C(=O)N(OS(=O)(=O)O)C3(C)C)c3csc(N)n3)C(=O)O)cc2)cn1CC(O)CN (stereo partly drawn) [Example 42, (3S)-3-((Z)-2-(((1S)-2-(4-(1-(3-amino-2-hydroxypropyl)-2-methyl-1H-pyrazol-2-ium-4-yl)phenoxy)-1-carboxyethoxy)imino)-2-(2-aminothiazol-4-yl)acetamido)-2,2-dimethyl-4-oxoazetidin-1-yl sulfate]
- PA_CL5701 MITC95 [2]: 3.125 µM
- KP_CL6569 MITC95 [3]: 0.3906 µM

Compound: Cc1cc(-c2ccc(OC[C@H](O/N=C(\C(=O)N[C@@H]3C(=O)N(OS(=O)(=O)O)C3(C)C)c3csc(N)n3)C(=O)O)cc2)[n+](C)n1CCCN.O=C([O-])C(F)(F)F [Example 22, 1-(3-aminopropyl)-3-(4-((S)-2-((((Z)-1-(2-aminothiazol-4-yl)-2-(((S)-2,2-dimethyl-4-oxo-1-(sulfooxy)azetidin-3-yl)amino)-2-oxo-ethylidene)amino)oxy)-2-carboxyethoxy)phenyl)-2,5-dimethyl-1H-pyrazol-2-ium 2,2,2-trifluoroacetate]
- PA_CL5701 MITC95 [2]: 25 µM
- KP_CL6569 MITC95 [3]: 0.7813 µM

Compound: CC1(C)[C@H](NC(=O)/C(=N\O[C@@H](COc2ccc(-n3cc[n+](CC4CNC4)c3)nc2)C(=O)O)c2csc(N)n2)C(=O)N1OS(=O)(=O)[O-] [Example 109, (S)-3-((Z)-2-(2-aminothiazol-4-yl)-2-(((S)-2-((6-(3-(azetidin-3-ylmethyl)-1H-imidazol-3-ium-1-yl)pyridin-3-yl)oxy)-1-carboxyethoxy)imino)acetamido)-2,2-dimethyl-4-oxoazetidin-1-yl sulfate]
- PA_CL5701 MITC95 [2]: 12.5 µM
- KP_CL6569 MITC95 [3]: 0.7813 µM

Compound: C[n+]1cc(-c2ccc(OC[C@H](O/N=C(\C(=O)N[C@@H]3C(=O)N(OS(=O)(=O)[O-])C3(C)C)c3csc(N)n3)C(=O)O)cc2Cl)cn1CCCN [Example 38, (S)-3-((Z)-2-(((S)-2-(4-(1-(3-aminopropyl)-2-methyl-1H-pyrazol-2-ium-4-yl)-3-chlorophenoxy)-1-carboxyethoxy)imino)-2-(2-aminothiazol-4-yl)acetamido)-2,2-dimethyl-4-oxoazetidin-1-yl sulfate]
- PA_CL5701 MITC95 [2]: 6.25 µM
- KP_CL6569 MITC95 [3]: 0.3906 µM

Compound: Cn1c(-c2ccc(OC[C@H](O/N=C(\C(=O)N[C@@H]3C(=O)N(OS(=O)(=O)O)C3(C)C)c3csc(N)n3)C(=O)O)cc2)cn(CCCN)c1=N.O=C(O)C(F)(F)F [Example 32, 3-(4-(4-((S)-2-((((Z)-1-(2-aminothiazol-4-yl)-2-(((S)-2,2-dimethyl-4-oxo-1-(sulfooxy)-azetidin-3-yl)amino)-2-oxoethylidene)amino)oxy)-2-carboxyethoxy)phenyl)-2-imino-3-methyl-2,3-dihydro-1H-imidazol-1-yl)propan-1-aminium 2,2,2-trifluoroacetate]
- PA_CL5701 MITC95 [2]: 3.125 µM
- KP_CL6569 MITC95 [3]: 0.1953 µM
